{"source": "paper PMC7603461", "about": "“Synthesis and in vitro characterization of the genotoxic, mutagenic and cell-transforming potential of nitrosylated heme” (Archives of Toxicology, 2020)", "key": {"BALB/c 3T3 cells [1]": {"test_system": "BALB/c 3T3 cells", "test": "BALB/c 3T3 cell transformation assay (CTA)", "details": "for cell-transforming potential: controls 61.54 µM DHAA", "experimental": "The CTA was performed as previously described (Sasaki et al. [2012a]) and began with the seeding of 2 × 10^4 BALB/c 3T3 cells in 100 mm dishes (TPP) filled with 10 ml MEM medium. On day 1, the cells were incubated with the test substances for three days, followed by a medium change on day 4. From now on, the cells were incubated in DMEM/HAM’s F-12 medium supplemented with 2% (v/v) FCS, 100 µg ml^−1 streptomycin, 100 IU ml^−1 penicillin (all components were obtained from Biochrom) and 2 µg ml^−1 bovine pancreas insulin solution (Sigma-Aldrich). On days 7, 10, 14, 17, 21 and 24, the medium was changed and the cells were finally fixed on day 31 using ice-cold methanol. Lastly, the plates were stained with Giemsa solution and the number of type III foci formed was counted using a stereo microscope (SZX2-ILLT; Olympus, Hamburg, Germany)."}, "BALB/c 3T3 cells [2]": {"test_system": "BALB/c 3T3 cells", "test": "Colony forming efficiency (CFE) cytotoxicity assay", "details": "for concentration at which cytotoxicity starts: CFE", "experimental": "Briefly, 200 BALB/c 3T3 cells were seeded in 60 mm dishes (TPP) filled with 4 ml MEM medium. […] 3-Methylcholanthrene (MCA, Sigma-Aldrich) dissolved in DMSO was used as positive control. On day 4, the medium was removed and 4 ml fresh culture medium were added. On day 9, the cells were washed with saline, fixed with 4 ml ice-cold methanol (Carl Roth) for 10 min and then stained with Giemsa solution (Carl Roth) for 30 min. Finally, the stained dishes were washed with water and air-dried before cell colonies with a diameter of ≥ 2 mm were counted."}, "[3]": {"test_system": "V79 Chinese hamster lung fibroblasts", "design": "method as in Cajelli et al. ([1987])", "details": "ref Cajelli et al. ([1987]); cited from earlier work"}, "[4]": {"test_system": "Salmonella typhimurium strain TA100", "method": "(§1) The Ames test was performed according to the pre-incubation method described by Mortelmans and Zeiger ([2000]), albeit with slight modifications. Briefly, the lyophilized Salmonella typhimurium strains TA100 (lot number 5220D, Trinova, Gießen, Germany) and TA1535 (lot number 5209D, Trinova) were cultured overnight in 50 ml nutrient broth no. 2 (Thermo Scientific) at 37 °C. Subsequently, the bacterial cultures were shaken for two hours at 125 rpm and 37 °C until the suspension reached an optical density of 1–1.3 at 600 nm. Then, 100 µl of the suspension were mixed with 500 µl of sodium phosphate buffer (final concentrations: 12 mM NaH2PO4, 88 mM Na2HPO4 [pH 7.4]; all components purchased from Carl Roth) and 50 µl of the test compound. Sodium azide (Sigma-Aldrich) was used as positive control and dissolved in ultrapure water. The bacteria were mixed and incubated with the test compounds for 30 min at 37 °C prior to being plated and further incubated for 48 h at 37 °C. Finally, the number of grown revertant colonies was counted."}, "[5]": {"test_system": "Salmonella typhimurium strain TA1535", "method": "as §1"}, "[6]": {"test_system": "heme oxygenase 1 (HO-1) in Caco-2 cells", "test": "HO-1 expression as surrogate marker of cellular uptake (SDS-PAGE and Western blotting)", "assay_type": "cell-based, human", "details": "50 and 100 µM, 24-h incubation, compared to control samples", "method": "(§2) The cellular uptake of NO-heme and hematin was qualitatively investigated by using the expression of the intracellular heme-degrading protein heme oxygenase 1 (HO-1) as surrogate marker. Its expression was analyzed via SDS-PAGE and Western blotting in NO-heme-treated Caco-2 cells. Beforehand, the cytotoxicity of the heme species as well as solvents was evaluated using a commercial kit measuring cell viability based on the WST-1 reagent obtained from Roche Diagnostics (Mannheim, Germany) and performed according to the manufacturer's instructions. Briefly, 5 × 10^4 cells/well were seeded in 96-well plates (TPP) and incubated for 24 h. Then, the cells were treated with the test substances in triplicate for a further 24 h before they were washed with phosphate buffered saline (PBS) and incubated for 1.5 h with 100 μl/well medium supplemented with 10% (v/v) WST-1 reagent. Finally, absorption was measured at 450 nm (with a reference wavelength at 650 nm). For HO-1 expression analysis, Caco-2 cells (3 × 10^5/3.5 cm plate) were treated for 24 h as mentioned above, with 2% acetone/H2O and 2% acetone/NaOH serving as solvent controls. […] After final washings steps, proteins were detected with enhanced chemoluminescence using an Azure 300 CL imaging system (Azure biosystems, Dublin, USA). […]"}, "Caco-2 cells [7]": {"test_system": "Caco-2 cells", "test": "WST-1 cytotoxicity assay", "assay_type": "cell-based, human", "details": "50 µM", "method": "as §2"}, "BALB/c 3T3 cells [8]": {"test_system": "BALB/c 3T3 cells", "test": "Single cell electrophoresis assay (comet assay), BALB/c 3T3", "assay_type": "cell-based, murine", "details": "1 h treatment; for increase of the tail intensity (genotoxic effect): heme species up to 100 µM, nitrite control 100 µM", "method": "(§3) DNA-damaging effects of NO-heme were determined in Caco-2 and BALB/c 3T3 cells using the single cell electrophoresis assay (comet assay). […] The comet assay was performed as previously reported (Briviba et al. [2016]), with the following modifications: 2.15 × 10^4 cells/well were seeded in 6-well plates (Corning, Kennebunk, USA) and cultivated for five days. At day six after seeding, the cells were treated for 1 h with the different test substances diluted in Hank’s Balanced Salt Solution (HBSS; Lonza). Hydrogen peroxide and iron sulfate (both from Sigma-Aldrich) served as positive controls. After treatment, the cells were prepared as previously published (Briviba et al. [2016]) and incubated in a specific lysis buffer (100 mM Na2EDTA, 1% Triton X-100, […] NaCl, 1% lauroyl sarcosine sodium salt, 10 mM tris(hydroxymethyl)aminomethane [TRIS] and 10% dimethyl sulfoxide; all purchased from Merck, Darmstadt, Germany) for 1 h at 4 °C. Then, microscope slides were incubated in electrophoresis buffer (1 mM Na2EDTA, 300 mM NaOH; Merck) for 20 min at room temperature, followed by an electrophoresis run at 25 V and 300 mA for 40 min. Thereafter, the slides were washed three times with TRIS buffer (0.4 M; pH 7.5) and stained using 85 µl of a 4,6-diamidino-2-phenylindole solution (5 µg ml^−1; Merck). For quantification of the results, 100 cells per slide were analyzed using a DM 400 B fluorescence microscope (Leica, Wetzlar, Germany) connected to the Comet Assay II Image Analysis System (Perceptive Instruments, Halstedt, UK)."}, "Caco-2 cells [9]": {"test_system": "Caco-2 cells", "test": "Single cell electrophoresis assay (comet assay), Caco-2", "assay_type": "cell-based, human", "details": "for genotoxic effects (tail intensity): Caco-2 cells, 1 h treatment, increasing concentrations of heme species, nitrite control 100 µM", "method": "as §3"}, "DNA": {"test_system": "DNA", "design": "method as in Tamir et al. [1996]", "details": "at least tenfold higher than NO-heme; ref Tamir et al. [1996]; cited from earlier work"}, "CHO-K1-BH4 cells": {"test_system": "CHO-K1-BH4 cells", "test": "In vitro mammalian cell gene mutation test (HPRT assay)", "assay_type": "cell-based, Chinese hamster", "details": "4 h treatment, without metabolic activation, 100 µM as well as 200 µM heme species, nitrite control 100 µM", "method": "(§4) The investigation of potential cytotoxic effects induced by NO-heme in CHO-K1 cells was performed using a commercial cell proliferation kit based on the MTT reagent obtained from Roche Diagnostics and performed according to the manufacturer's instructions. Briefly, 3.5 × 10^4 cells/well were seeded in 96-well plates (Greiner Diagnostic, Balingen, Germany). Approximately 24 h later, the cells were treated with different NO-heme and acetone concentrations for another 24 h. Subsequently, cells were incubated with the MTT solution for 4 h, before 100 µl DMSO (Carl Roth) were added and absorbance was measured at a wavelength of 570 nm using a microplate reader (EL600; BioTek Instruments, Winooski, USA). The mitochondrial metabolic activity of NO-heme-treated cells was thereby compared to the vehicle control. The HPRT assay was performed according to OECD test guideline no. 476 (OECD [2016]) without exogenous metabolic activation. Briefly, 5 × 10^5 cells per sample were seeded in a 75 cm^2 cell culture flask (Greiner Bio-One) containing 15 ml of McCoy’s 5A medium. […] After another period of 9 days, colonies resistant to 6-thioguanine were fixed with methanol (Carl Roth), stained with methylene blue (Carl Roth) and counted. For the final evaluation of the test, the absolute number of mutations per one million CHO-K1 cells was calculated."}, "[10]": {"details": "ref Kodama et al. [1976]; Tsuda and Hasegawa [1990]; Stevanovic et al. [2000]; cited from earlier work"}, "BALB/c 3T3 cells [11]": {"test_system": "BALB/c 3T3 cells", "details": "ref Kodama et al. [1976]; Tsuda and Hasegawa [1990]; Stevanovic et al. [2000]; cited from earlier work"}, "murine cell lines": {"test_system": "murine cell lines", "details": "ref Kodama et al. [1976], Görsdorf et al. [1990]; cited from earlier work"}, "CHO-K1 cells": {"test_system": "CHO-K1 cells", "assay_type": "cell-based, Chinese hamster", "method": "as §4"}, "[12]": {"details": "exposure to UV light and oxygen (sunlight and air), room temperature", "experimental": "For the analysis of stability, NO-heme was stored in 15 ml centrifuge tubes (Greiner Bio-One, Frickenhausen, Germany) under different light and atmospheric conditions. […] The final solution was further diluted in 80% acetone/H2O to a final volume of 12.5 ml and allocated to four centrifuge tubes containing 3 ml each. Two of the NO-heme samples were stored in the dark at room temperature, flushed with nitrogen and additionally sealed with thermoplastic film (Parafilm® M, Sigma-Aldrich). The other samples were incubated at room temperature and exposed to sunlight and air. The NO-heme content of each tube was analyzed by UV–Vis and FTIR spectroscopy after 0, 2, 4 and 24 h of incubation."}, "[13]": {"details": "TA100, pre-incubation method, up to 300 µM NO-heme and hematin, 1.54 mM NaN3, 100 µM NaNO2"}, "[14]": {"details": "TA1535, pre-incubation method, up to 300 µM NO-heme and hematin, 1.54 mM NaN3, 100 µM NaNO2"}}, "note": "Where two headings read alike, the source gives them in different places.", "data": [{"compound": "O=C1OC(C(O)CO)C(=O)C1=O", "note": "(stereo not shown) [DHAA, dehydroascorbic acid]", "values": [{"measurement": "cell-transforming potential", "setting": "BALB/c 3T3 cells [1]; 100 µM NaNO2", "value": "no cell-transforming potential"}, {"measurement": "concentration at which cytotoxicity starts", "setting": "BALB/c 3T3 cells [2]", "value": 750, "unit": "µM"}]}, {"compound": "O=CCC=O", "note": "[MDA, malondialdehyde]", "values": [{"measurement": "mutagenicity in the HGPRT assay", "setting": "[3]", "value": "mutagenic potential"}]}, {"compound": "[N-]=[N+]=[N-].[Na+]", "note": "[NaN3, Sodium azide]", "values": [{"measurement": "mutagenic effects (revertant colonies)", "setting": "[4]; [13]", "value": "Except for the positive control NaN3, no mutagenic effects were detected"}, {"measurement": "mutagenic effects (revertant colonies)", "setting": "[5]; [14]", "value": "Except for the positive control NaN3, no mutagenic effects were detected"}]}, {"compound": "C=CC1=C(C)c2cc3[n-]c(cc4[n-]c(cc5nc(cc1n2)C(C)=C5C=C)c(C)c4CCC(=O)O)c(CCC(=O)O)c3C.O.[Fe+2]", "note": "[hematin]", "values": [{"measurement": "expression of HO-1", "setting": "[6]", "value": "increased expression of HO-1"}, {"measurement": "relative cell viability", "setting": "Caco-2 cells [7]; Caco-2 cells, 24 h, WST-1", "value": "45 % of the control"}, {"measurement": "concentration range with statistically significant increase of tail intensity", "setting": "BALB/c 3T3 cells [8]", "value": "10 to 100", "unit": "µM"}, {"measurement": "increase of the tail intensity (genotoxic effect)", "setting": "BALB/c 3T3 cells [8]", "value": "dose-dependent increase of the tail intensity with statistically significant effects"}, {"measurement": "genotoxic effects (tail intensity)", "setting": "Caco-2 cells [9]", "value": "exhibiting genotoxic effects"}, {"measurement": "mutagenic effects (revertant colonies)", "setting": "[4]; [13]", "value": "no mutagenic effects were detected"}, {"measurement": "mutagenic effects (revertant colonies)", "setting": "[5]; [14]", "value": "no mutagenic effects were detected"}, {"measurement": "amount of type III foci compared to the corresponding solvent control", "setting": "BALB/c 3T3 cells [1]; 150 µM, treatment for three days", "value": "significant increase"}, {"measurement": "cytotoxicity", "setting": "BALB/c 3T3 cells [2]; up to the maximum concentration of 200 µM", "value": "no sign of cytotoxicity"}]}, {"compound": "O=NOO", "note": "[peroxynitrite]", "values": [{"measurement": "concentration needed to induce DNA strand breaks", "setting": "DNA", "value": 1000, "unit": "µM"}]}, {"compound": "O=N[O-].[Na+]", "note": "[sodium nitrite, Sodium nitrite]", "values": [{"measurement": "increase of the tail intensity (genotoxic effect)", "setting": "BALB/c 3T3 cells [8]", "value": "no genotoxic, mutagenic or cell-transforming effects"}, {"measurement": "genotoxic effects (tail intensity)", "setting": "Caco-2 cells [9]", "value": "no genotoxic, mutagenic or cell-transforming effects"}, {"measurement": "mutagenic effects (revertant colonies)", "setting": "[4]", "value": "no genotoxic, mutagenic or cell-transforming effects"}, {"measurement": "mutagenic effects (revertant colonies)", "setting": "[5]", "value": "no genotoxic, mutagenic or cell-transforming effects"}, {"measurement": "frequencies of mutations compared to the solvent controls", "setting": "CHO-K1-BH4 cells", "value": "no genotoxic, mutagenic or cell-transforming effects"}, {"measurement": "concentrations at which mutagenic in the HPRT assay", "setting": "[10]", "value": "1000 to 10000", "unit": "µM"}, {"measurement": "concentrations leading to malignant transformation of BALB/c 3T3 cells", "setting": "BALB/c 3T3 cells [11]", "value": "1000 to 10000", "unit": "µM"}, {"measurement": "induction of DNA single strand breaks", "setting": "murine cell lines", "value": "did not induce DNA single strand breaks"}, {"measurement": "cell-transforming potential", "setting": "BALB/c 3T3 cells [1]; 100 µM NaNO2", "value": "no cell-transforming potential"}, {"measurement": "cell-transforming potential", "setting": "BALB/c 3T3 cells [1]; 100 µM NaNO2, listed as nitrite", "value": "no genotoxic, mutagenic or cell-transforming effects"}, {"measurement": "concentration at which cytotoxicity starts", "setting": "BALB/c 3T3 cells [2]", "value": 6000, "unit": "µM"}]}, {"compound": "nitrosylated heme [NO-heme]", "values": [{"measurement": "expression of HO-1", "setting": "[6]", "value": "increased expression of HO-1"}, {"measurement": "relative cell viability", "setting": "Caco-2 cells [7]", "value": "43 % of the control"}, {"measurement": "concentration needed to induce DNA strand breaks", "setting": "Caco-2 cells [9]", "value": 100, "unit": "µM"}, {"measurement": "mutagenic effects (revertant colonies)", "setting": "[4]; [13]", "value": "no mutagenic effects were detected"}, {"measurement": "mutagenic effects (revertant colonies)", "setting": "[5]; [14]", "value": "no mutagenic effects were detected"}, {"measurement": "relative cell viability", "setting": "CHO-K1 cells; 50 µM", "value": 87, "unit": "%"}, {"measurement": "relative cell viability", "setting": "CHO-K1 cells; 200 µM", "value": 59, "unit": "%"}, {"measurement": "time until absorbance signals in the UV–Vis spectrum are reduced", "setting": "[12]", "value": "two"}]}]}
